Results on five compounds are retold here after patent US20230277449A1, “ORAL CAVITY POLYMERIC DELIVERY SYSTEMS” (YISSUM RESEARCH DEVELOPMENT COMPANY OF THE HEBREW …, priority 2020, published 2023).

Values joined by “and” are separate entries in the source; they are usually repeats but may differ in a detail not shown here. Identical values can stand only once. Like-named read-outs stand apart in the source and are kept apart here.

The conditions of data set [1]: pig, in vivo, iv, 1 mg/kg.
Experimental: 2.1.7 In-vivo protocol of IV administration: Domestic female pigs (sus scrofa domesticus) of 35-40 kg were allowed to acclimate before the experiment. Pigs were fasted overnight before the experiments. On the morning of the experiment pigs were anesthetized by xylazine 1 mg/kg, midazolam 0.04 mg/kg, ketamine 5 mg/kg and propofol 4 mg/kg. Pigs were positioned on their back. Endotracheal tube was inserted, and pigs were respired with oxygen. […] Catheter was inserted into ear vein through which physiological saline was administered. Pigs received amoxicillin 15 mg/kg antibiotic and tolfenamic acid 2 mg/kg analgesic. An intra-jugular catheter was inserted for blood sampling. Pigs were constantly monitored for their respiration rate, rectal temperature, O2 saturation, heart rate and blood pressure. Cardiovascular parameters were obtained by blood pressure monitor with porcine adapted front leg cuff. […] Plasma was collected into tubes containing 10 µl mercaptoethanol and stored at -80° C. pending analysis. Isoflurane anesthesia was terminated, and pigs were recovered under veterinary surveillance to consciousness.
The samples were reconstituted in 100 µl 1:4 MeOH:DDW solution containing 0.01%^v/v formic acid and 0.1%^v/v mercaptoethanol and injected into LC-MS-MS system.
2.1.12 Chromatographic analysis of in-vivo samples: The chromatography was performed using a Shimadzu UHPLC System. The chromatographic separations were performed on a Kinetex™ (Phenomenex, CA, USA) column (EVO C18, 2.6 µm, 100 Å, 100 × 2.1 mm), protected by a SecurityGuard™ (Phenomenex, CA, USA) ULTRA cartridge (C18, 4 × 2 mm). The injection volume was 5 µl, temperature was 40° C.
Following this analysis PK parameters were obtained.
The nature of data set [2]: Monitored vital parameters after CBD and TPH administration to the mucosa of pigs. Particulars: median (lowest - highest). The class given is in vivo, pig. From the text: Israel. […] Pigs were fasted overnight before the experiments. […] They were positioned on their back.
The conditions of data set [3]: cited from earlier work.
The conditions of data set [4]: cited from earlier work. This is another data set of the same source.
Data set [5] can be described thus: In-vivo oral mucosal administration of CBD and TPH in mucoadhesive shell to pigs.
Text: 4.1.6 In-vivo experiment protocol: Domestic female pigs (sus scrofa domesticus) of 35 - 40 kg body weight were obtained from Lahav ltd. […] After arrival to the unit for experimental surgery at Hadassah Ein-Kerem medical center (Jerusalem, Israel) they were allowed to acclimate during a period of a week with free access to food and water, and were under veterinary surveillance. Pigs were fasted overnight before the experiments. On the morning of the experiment pigs were anesthetized by xylazine 1 mg/kg, midazolam 0.04 mg/kg, ketamine 5 mg/kg and propofol 4 mg/kg. They were positioned on their back. Endotracheal tube was inserted, and pigs were respired with oxygen. […] Catheter was inserted into the ear vein through which physiological saline was administered. Pigs received amoxicillin 15 mg/kg antibiotic and tolfenamic acid 2 mg/kg analgesic. An intra-jugular catheter was inserted for blood sampling. Pigs were constantly monitored for their respiration rate, rectal temperature, O2 saturation, heart rate and blood pressure. Cardiovascular parameters were obtained by blood pressure monitor with porcine adapted front leg cuff. […] A mucoadhesive “shell” was adhered to it and pressed with finger for 1 min, to ensure full adhesion. […] Visual inspection approved that the mucoadhesive “shell” was fully adhered to the mucosa and there were no leakages. […] Plasma was separated and stored at -80° C. pending analysis. At 8 hours mucoadhesive “shell” was removed, the mucosa was carefully cleaned with a gauze, so that no CBD and TPH will remain on its surface. At 12 hours pigs were euthanized by injection of overdose of KCl.
The samples were reconstituted in 100 µl 1:4 MeOH:DDW solution containing 0.01%^v/v formic acid and injected into LC-MS-MS.
4.1.9 Chromatographic analysis of CBD from in-vivo study: The chromatography was performed using a Thermo Scientific (San Jose, CA, USA) UHPLC System, which includes Dionex Pump with degasser module and an Accela Autosampler. […]
Data set [6] can be described thus: Ex-vivo permeability of APO, MTP and ATN in Ussing diffusion chamber. The class given is in vitro ADME, pig. Particulars: for Papp at 0.1 mM: n=3. From the text: Each chamber includes a heating block for temperature control and needle valves for adjustment of carbogen gas flow for oxygenation and gas lift stirring. Buccal tissues of female pigs, ~100 kg, were used in the experiments. Pigs were exposed to anesthetic agents, antibiotics, contrast agents and sacrificed by over exposure to KC1. […] Immediately following euthanasia, buccal tissue was removed and placed in ice-cold modified Ringer’s buffer (pH 7.4). Buccal mucosa segments were trimmed to 800-1000 µm by surgical scissors and tweezers and mounted into Ussing diffusion chambers. The exposed tissue surface area was 0.5 cm^2 and buffered solutions volume in each cell was 3 ml. The system was preheated to 35° C. Modified Ringer buffer was added to the receiver compartment and simulated saliva buffer to the donor side. The tissue oxygenation and the solution mixing were performed by bubbling with carbogen gas. The system was equilibrated for 30 min followed by replacing the solutions and adding 20 µl of the test solutions to the donor side of the chamber to commence the experiment.
Solutions were freshly prepared on the days of the experiments. […] When testing the effect of organic solvents, 100 µl of the simulated saliva in the donor chamber were replaced by 100 µl of 1:1EtOH:PG solution. When testing the effect of NLF 70 µl of the simulated saliva in the donor chamber were replaced by 70 µl of NLF. […] The constituents are melted at 37° C. and mixed until a clear yellow homogenous solution is obtained.
3.1.3 Experimental protocol: 100 µl samples were taken from receiver compartment at the beginning of the experiments, at half an hour and every hour until the end of the experiments. 100 µl of fresh Ringer’s buffer solution were added each time to receiver compartment. The dilution of the concentration of tested substances in the receiver compartment was accounted for. […] All samples were stored at -20° C. pending analysis.
The analysis conditions were as follows: XTerra MS (Waters Inc.) C18 Column (3.5 µm, 2.1 mm × 100 mm), temperature 45° C., flow rate 0.2 ml/min and mobile phase with a linear gradient as detailed in Table 23.
Statistical significance was stated for p<0.05. […] Papp calculation and simulations of steady state plasma levels for in-vivo testing
Apparent permeability (Papp) is calculated by Eq. 5: […]

The next data set is described as follows: in vitro. The conditions noted are these: female, pig, pH 7.4.
The conditions of data set [7]: in vivo.
A short description of data set [8]: Insulin release from mucoadhesive tablets in physiologic media. The class given is physicochemical. As for the experimental part: Peptides or proteins stabilized or encapsulated into nanoparticles, microparticles or liposomes were mixed in CP and HPC as described above and compressed into tablets. In a typical example, insulin zinc salt powder at 1% of the solids was added to the tablet composition and compressed into tablets. Insulin was released for 10 h from the tablets when placed in physiologic media. PLGA microspheres loaded with 50% insulin prepared by precipitation of concentrated alcoholic-dichloromethane solution into an anti-solvent, heptane. Particles at 10% of the non-active agents were added to the tablet powder and compressed into tablets. Anti-inflammatory protein such as Adiponectin, antimicrobial and antiviral proteins are also considered for buccal delivery.

Text for in vitro: Each chamber includes a heating block for temperature control and needle valves for adjustment of carbogen gas flow for oxygenation and gas lift stirring. Buccal tissues of female pigs, ~100 kg, were used in the experiments. […] Pigs were exposed to anesthetic agents, antibiotics, contrast agents and sacrificed by over exposure to KCl. […] Immediately following euthanasia, buccal tissue was removed and placed in ice-cold modified Ringer’s buffer (pH 7.4). Buccal mucosa segments were trimmed to 800-1000 µm by surgical scissors and tweezers and mounted into Ussing diffusional chambers. The exposed tissue surface area was 0.5 cm^2 and buffered solutions volume in each cell was 3 ml. The system was preheated to 35 (±1)°C. Modified Ringer’s buffer containing 4% bovine serum albumin was added to the receiver side and simulated saliva buffer to the donor side. The tissue oxygenation and the solution mixing were performed by bubbling with carbogen gas. The system was equilibrated for 30 min followed by replacing the solutions and adding 20 µl of the test solutions to the donor side of the chamber to commence the experiment.
4.1.12 Equations utilized: Apparent permeability (Papp) is calculated by Eq. 8: […]

Consider `CN1CCc2cccc3c2C1CC1=C3C(=O)C(=O)C=C1` (centres unmarked) [APO-quinone], for which the half-lives of metabolites in [1] was 25.5 (±2.0) min.

Regarding `C=C(C)[C@@H]1CCC(C)=C[C@H]1c1c(O)cc(CCCCC)cc1O` [CBD, cannabidiol], in data set [2] (CBD with TPH), the “Diastolic blood press (mmHg)” value is 37 (29 - 46) mmHg, the “Heart rate (beats/min)” value is recorded as 98 (79 - 123) beats/min, the “O2 satur (%)” value is recorded as 99 (90 - 100) % and the “Respiration rate (min^-1)” value was 10 (10-13) min^-1. For the same compound, the “Systolic blood press (mmHg)” value in data set [2] (CBD with TPH) is on record as 77 (68 - 87) mmHg. In addition, the “Rectal temp (°C)” value in [2] (CBD ~0.42 mg/kg with TPH ~0.11 mg/kg, three pigs) was 37.4 (36.8 - 38.8) °C. Further, in [3], the aqueous solubility is ~ 12 µg/ml and ~ 0.04 mM; the “log P” value is reported as ~ 6. Also, the “steady state volume of distribution” value in data set [4] (humans, IV administration) was 30 L/kg. Moreover, the Css entry in [5] (~0.42 mg/kg CBD, 30.0 mg/ml, 8 h exposure) was “not reached”.

On to `COCCc1ccc(OCC(O)CNC(C)C)cc1` (centres unmarked) [MTP, metoprolol], for which the “Papp lower at pH 5.9 than at pH 7.4” value in data set [6] was 2 fold. Besides, in data set [6] (female, pig, pH 7.4 with 3.33% v/v of 1:1 ethanol: propylene glycol solution, read-out: Apparent permeability (Papp)), the Papp is 7.24 ×10⁻⁶ cm/s. Moreover, the Papp at 0.1 mM in [6] (female, pig, simulated saliva pH 5.9, mean (±SD), read-out: Apparent permeability (Papp)) was 1.11 ×10⁻⁶ cm/s. For the same compound, the Papp at 0.1 mM in data set [6] (female, pig, simulated saliva pH 7.4, standard 0.1 mM, mean (±SD), read-out: Apparent permeability (Papp)) was 2.48 ×10⁻⁶ cm/s. In the data set “in vitro”, this compound gave a Papp at 6 h of 1.02 ×10⁻⁶ cm/s and a Papp at 6 h, 34 µg/ml of 9.89 ×10⁻⁶ cm/s.

Turning to `Cn1c(=O)c2[nH]cnc2n(C)c1=O` [TPH, theophylline], in data set [7], the “CL slower than CBD” value was ~ 50 fold. Further, in [3], the “log P” value was ~ 0. The CL in [4] (in vivo) is 0.283 to 0.67 mL/min/kg. The “TPH plateau higher than the highest plasma level of CBD” value in data set [5] (considering the molar dose administered) came out at 300 fold. In addition, in data set [5] (~0.11 mg/kg TPH, 8.0 mg/ml, 1.58 cm^2, three pigs), the “time to plateau of plasma levels (lag-time)” value turned out to be 5 h.

On to “Insulin: insulin zinc salt powder at 1% of the solids in CP and HPC tablets”, for which, in data set [8], the “duration of insulin release” value worked out at 10 h.
